# Measurements taken from patent US6191113A, “Peptide for inhibiting growth of smooth muscle cells” (Juridical Foundation The Chemo-Sero-Therapeutic Research …, priority 1995, dated 2001).
# Assays:
# [1] = test system: Vascular smooth muscle cells from human aorta; assay: Growth inhibition of smooth muscle cells by full-length TFPI or TFPI lacking the C-terminal region (cell count, DME); assay type: cell-based; conditions: 50 μg/ml in DME, counted nine days after plating, 3 wells, Student's t-test
# Procedure: Vascular smooth muscle cells from human aorta (purchased from Kurabo K.K.) were used and subjected to passage culture with Dulbecco modified Eagle medium (hereinafter referred to as "DME") supplemented with 10% fetal calf serum. The smooth muscle cells with six passages were used in the following experiment.
# The smooth muscle cells suspended in DME were plated on a 48 well culture plate (manufactured by Iwaki Glass K.K.) at a cell density of 5,000 cells/well and incubated in CO2 incubator at 37° C. Two days after plating, the culture medium was exchanged with DME containing 50 μg/ml of full-length TFPI or 50 μg/ml of TFPI lacking the C-terminal region or with DME alone as a control and culture was continued in CO2 incubator at 37° C. while the culture medium was exchanged with a fresh medium on every 2 days. The culture medium was used at 0.3 ml/well. Nine days after plating, the cells attached to the plate were detached by treatment with a trypsin/EDTA solution and then a cell number per well was counted with a hemocytometer. FIG. 1 is a graph showing a mean cell number as well as a standard deviation for three wells in each group.
# smooth muscle cells = assay: Cellular toxicity with Cytotox 96 kit; assay type: cell-based, human; conditions: Cytotox 96 kit (Promega)
substance,measurement,setting,value
full-length TFPI: intact human tissue factor pathway inhibitor purified from culture supernatant of Chinese hamster ovary cell line,activity to inhibit growth of smooth muscle cells (cell number per well vs control),[1],significantly decreased cell number
same,cellular toxicity,smooth muscle cells,did not exhibit cellular toxicity
